Test results published in ChEMBL document CHEMBL3885861, “Open TG-GATES”.

Species on record: Rattus norvegicus
Experiment: Open TG-GATES - Regimen: Daily Repeat
Assay type: toxicity, organism-based, Sprague-Dawley
Set-up: regimen Daily Repeat, gender Male, age 6 weeks
Conditions: in vivo, po, 3 mg/kg, route gavage, dose level Low; for APTT / Bas / Eos / Fbg / Hb / Ht / Lym / MCH / MCHC / MCV / Mono / Neu / PT / Plat / RBC / Ret / WBC: tissue Blood
[1] = 72 h, tissue Kidney, time 3 day
[2] = 72 h, tissue Plasma, time 3 day

CN(C)CCC(c1ccc(Cl)cc1)c1ccccn1 (stereo unspecified) [CHLORPHENIRAMINE]
TERMINAL_BW (72 h, time 3 day): 233.5 g
APTT (72 h, time 3 day): 18.3 s
Bas (72 h, time 3 day): 0.2%
Eos (72 h, time 3 day): 1%
Fbg (72 h, time 3 day): 299.4 mg/dL
Hb (72 h, time 3 day): 13.3 g/dL
Ht (72 h, time 3 day): 41.5%
Lym (72 h, time 3 day): 80.4%
MCH (72 h, time 3 day): 21 pg
MCHC (72 h, time 3 day): 32.1%
MCV (72 h, time 3 day): 65.5 fL
Mono (72 h, time 3 day): 2.8%
Neu (72 h, time 3 day): 15.2%
PT (72 h, time 3 day): 14.5 s
Plat (72 h, time 3 day): 124 x10_4/uL
RBC (72 h, time 3 day): 634 x10_4/ul
Ret (72 h, time 3 day): 7.1%
WBC (72 h, time 3 day): 89 x10_2/uL
KIDNEY_L [1]: 1 g
KIDNEY_R [1]: 0.9 g
KIDNEY_TOTAL [1]: 1.9 g
LIVER (72 h, tissue Liver, time 3 day): 11.3 g
A/G [2]: 0.8
ALP [2]: 1834.4 IU/L
ALT [2]: 44.4 IU/L
AST [2]: 66.4 IU/L
BUN [2]: 16.2 mg/dL
CRE [2]: 0.2 mg/dL
Ca [2]: 10.6 mg/dL
Cl [2]: 106.2 meq/L
DBIL [2]: 0.018 mg/dL
GLC [2]: 183.6 mg/dL
IP [2]: 8.3 mg/dL
K [2]: 4.3 meq/L
LDH [2]: 94.6 IU/L
Na [2]: 142 meq/L
PL [2]: 162.6 mg/dL
RALB [2]: 2.7 g/dL
TBIL [2]: 0.04 mg/dL
TC [2]: 86.6 mg/dL
TG [2]: 109.8 mg/dL
TP [2]: 5.8 g/dL
gamma-GTP [2]: 1 IU/L
TERMINAL_BW ([…], time 7 day): 265.1 g
TERMINAL_BW ([…], time 14 day): 330.4 g
TERMINAL_BW ([…], time 28 day): 400.2 g
APTT ([…], time 7 day): 19.8 s
Bas ([…], time 7 day): 0%
Eos ([…], time 7 day): 1%
Fbg ([…], time 7 day): 289.8 mg/dL
Hb ([…], time 7 day): 13.7 g/dL
Ht ([…], time 7 day): 41.7%
Lym ([…], time 7 day): 77.2%
MCH ([…], time 7 day): 20.6 pg
MCHC ([…], time 7 day): 32.8%
MCV ([…], time 7 day): 62.8 fL
Mono ([…], time 7 day): 2.6%
Neu ([…], time 7 day): 18.4%
PT ([…], time 7 day): 14 s
Plat ([…], time 7 day): 116 x10_4/uL
RBC ([…], time 7 day): 665 x10_4/ul
Ret ([…], time 7 day): 6%
WBC ([…], time 7 day): 80.2 x10_2/uL
APTT ([…], time 14 day): 18.1 s
Bas ([…], time 14 day): 0.2%
Eos ([…], time 14 day): 1%
Fbg ([…], time 14 day): 299 mg/dL
Hb ([…], time 14 day): 14.4 g/dL
Ht ([…], time 14 day): 43.5%
Lym ([…], time 14 day): 80.2%
MCH ([…], time 14 day): 20.5 pg
MCHC ([…], time 14 day): 33.1%
MCV ([…], time 14 day): 61.9 fL
Mono ([…], time 14 day): 2.8%
Neu ([…], time 14 day): 15%
PT ([…], time 14 day): 14.4 s
Plat ([…], time 14 day): 119.7 x10_4/uL
RBC ([…], time 14 day): 703.8 x10_4/ul
Ret ([…], time 14 day): 4.6%
WBC ([…], time 14 day): 85 x10_2/uL
APTT ([…], time 28 day): 17.7 s
Bas ([…], time 28 day): 0.4%
Eos ([…], time 28 day): 1%
Fbg ([…], time 28 day): 281.2 mg/dL
Hb ([…], time 28 day): 15.6 g/dL
Ht ([…], time 28 day): 46.5%
